Measurements reported in patent US6362134B1, “Herbicidal 1,2,4,6-thiatriazines” (Syngenta Investment Corporation, priority 1996, dated 2002).

Assays:
Format in all cases: in vivo
[1] = system: Avena; test: Herbicidal action before emergence of the plants (pre-emergent action); conditions: 2000 g of active substance/ha, sprayed immediately after sowing, evaluated after 3 weeks, ratings scale of nine levels (1=complete damage, 9=no action)
Method: (§1) Monocotyledon and dicotyledon test plants are sown in standard soil in plastic pots. Immediately after sowing, the test substances are sprayed on (500 l of water/ha) in an aqueous suspension prepared from a 25% wettable powder (Example F3, b)), corresponding to a dosage of 2000 g of active substance/ha. The test plants are then grown under optimum conditions in a greenhouse. After a test period of 3 weeks, the test is evaluated with a ratings scale of nine levels (1=complete damage, 9=no action). Ratings of 1 to 4 (in particular 1 to 3) mean a good to very good herbicidal action.
(§2) Test plants: Avena, Setaria, Sinapis, Stellaria

[2] = system: Setaria; test: as above; set-up: key: 1=complete damage; 9=no action; Ratings of 1 to 4 (in particular 1 to 3) mean a good to very good herbicidal action; conditions: 2000 g of active substance/ha, sprayed immediately after sowing, evaluated after 3 weeks, ratings scale of nine levels
Method: as §1, §2

[3] = system: Sinapis; test: as above; set-up: key: 1=complete damage; 9=no action; Ratings of 1 to 4 (in particular 1 to 3) mean a good to very good herbicidal action; conditions: 2000 g of active substance/ha, sprayed immediately after sowing, evaluated after 3 weeks, ratings scale of nine levels
Method: as §1, §2

[4] = system: Stellaria; test: as above; set-up: key: 1=complete damage; 9=no action; Ratings of 1 to 4 (in particular 1 to 3) mean a good to very good herbicidal action; conditions: 2000 g of active substance/ha, sprayed immediately after sowing, evaluated after 3 weeks, ratings scale of nine levels
Method: as §1, §2

[5] = system: Sinapis; test: Post-emergent herbicidal action (contact herbicide); set-up: key: 1=complete damage; 9=no action; Ratings of 1 to 4 (in particular 1 to 3) mean a good to very good herbicidal action; conditions: 2000 g of active substance/ha, sprayed in the 4- to 6-leaf stage, evaluated after about 18 days, ratings scale 1-9
Method: (§3) Monocotyledon and dicotyledon test plants are grown in plastic pots with standard soil in a greenhouse and, in the 4- to 6-leaf stage, are sprayed with an aqueous suspension of the test substances of the formula 1, prepared from a 25% wettable power (Example F3, b)), corresponding to a dosage of 2000 g of active substance/ha (500 l of water/ha). The test plants are then grown further in the greenhouse under optimum conditions. After a test period of about 18 days, the test is evaluated with a ratings scale of 9 levels (1=complete damage, 9=no action). Ratings of 1 to 4 (in particular 1 to 3) mean a good to very good herbicidal action.
(§4) Test plants: Sinapis, Stellaria

[6] = system: Stellaria; test: as above; set-up: key: 1=complete damage; 9=no action; Ratings of 1 to 4 (in particular 1 to 3) mean a good to very good herbicidal action; conditions: 2000 g of active substance/ha, sprayed in the 4- to 6-leaf stage, evaluated after about 18 days, ratings scale 1-9
Method: as §3, §4

Row | SMILES | Pre-emergent action, rating, Avena [1] | Pre-emergent action, rating, Setaria [2] | Pre-emergent action, rating, Sinapis [3] | Pre-emergent action, rating, Stellaria [4] | Post-emergent action, rating, Sinapis [5] | Post-emergent action, rating, Stellaria [6]
1 | NC1=NS(N2CC3CCCC2CC3)=NC(Oc2c(F)c(F)c(F)c(F)c2F)=N1 (stereo not shown) [6.185] | 4 | 4 | 1 | 1 | 1 | 1
2 | CC1(C)CCCN(S2=NC(N)=NC(Oc3c(F)c(F)c(F)c(F)c3F)=N2)C1 (stereo not shown) [6.34] | 3 | 1 | 1 | 1 | 2 | 2
3 | NC1=NC(Oc2c(F)c(F)c(F)c(F)c2F)=NS(OCC23CC4CC(CC(C4)C2)C3)=N1 (stereo not shown) [5.85] |  |  |  |  | 3 | 3
4 | CC1CC2CCCCC2N1S1=NC(N)=NC(Oc2c(F)c(F)c(F)c(F)c2F)=N1 (stereo not shown) [6.282] | 4 | 2 | 1 | 1 | 1 | 5
5 | CC(C)(C)C1CCC(OS2=NC(N)=NC(Oc3c(F)c(F)c(F)c(F)c3F)=N2)CC1 (stereo not shown) [5.316] |  |  |  |  | 2 | 4
6 | NC1=NC(Oc2c(F)c(F)c(F)c(F)c2F)=NS(N2CCCCCC2)=N1 (stereo not shown) [6.229] | 3 | 2 | 1 | 1 | 2 | 3
7 | NC1=NC(Oc2c(F)c(F)c(F)c(F)c2F)=NS(N2CCCCC2)=N1 (stereo not shown) [6.53, 3-amino-5-pentafluorophenoxy-1-(piperidin-1-yl)thiatriazine] | 3 | 3 | 1 | 1 |  | 
8 | CC(C)N(C(C)C)S1=NC(Oc2c(F)c(F)c(F)c(F)c2F)=NC(N)=N1 (stereo not shown) [6.247] |  |  |  |  | 3 | 4
9 | CC1CC(C)CC(OS2=NC(N)=NC(Oc3c(F)c(F)c(F)c(F)c3F)=N2)C1 (stereo not shown) [5.120] | 4 | 2 | 1 | 1 | 2 | 3
10 | NC1=NS(N2CCCCCCCC2)=NC(Oc2c(F)c(F)c(F)c(F)c2F)=N1 (stereo not shown) [6.257] | 3 | 2 | 1 | 1 | 2 | 2
11 | CC1CCCC(OS2=NC(N)=NC(Oc3c(F)c(F)c(F)c(F)c3F)=N2)C1 (stereo not shown) [5.141] |  |  |  |  | 2 | 4
12 | CC1CC(OS2=NC(N)=NC(Oc3c(F)c(F)c(F)c(F)c3F)=N2)CC(C)(C)C1 (stereo not shown) [5.86] | 5 | 3 | 1 | 1 |  | 
13 | CC1CCC(OS2=NC(N)=NC(Oc3c(F)c(F)c(F)c(F)c3F)=N2)CC1 (stereo not shown) [5.327] | 4 | 3 | 2 | 1 |  | 
14 | CC1(C)CC(OS2=NC(N)=NC(Oc3c(F)c(F)c(F)c(F)c3F)=N2)CC(C)(C)C1 (stereo not shown) [5.146] | 4 | 1 | 1 | 1 |  | 
15 | NC1=NS(N2CCCCCCCCCC2)=NC(Oc2c(F)c(F)cc(F)c2F)=N1 (stereo not shown) [6.320] |  |  |  |  | 2 | 3
16 | CC12CCCCC1N(S1=NC(N)=NC(Oc3c(F)c(F)c(F)c(F)c3F)=N1)CCC2 (stereo not shown) [6.181] |  |  |  |  | 2 | 3
17 | NC1=NC(Oc2c(F)c(F)c(F)c(F)c2F)=NS(N2CCCC3CCCCCCC32)=N1 (stereo not shown) [6.102] |  |  |  |  | 2 | 3
18 | CC1(C)C2CCC1(C)C(OS1=NC(N)=NC(Oc3c(F)c(F)c(F)c(F)c3F)=N1)C2 (stereo not shown) [5.154] |  |  |  |  | 2 | 4
19 | CC1CCCC(OS2=NC(N)=NC(Oc3cc(F)ccc3F)=N2)C1 (stereo not shown) [5.318] |  |  |  |  | 2 | 4
20 | NC1=NC(OCC(Cl)(Cl)C(F)(F)F)=NS(OCCCl)=N1 (stereo not shown) [5.337] |  |  |  |  | 1 | 5

Row | SMILES | Pre-emergent action, rating, Avena [1] | Pre-emergent action, rating, Setaria [2] | Pre-emergent action, rating, Sinapis [3] | Pre-emergent action, rating, Stellaria [4] | Post-emergent action, rating, Sinapis [5] | Post-emergent action, rating, Stellaria [6]
21 | NC1=NC(Oc2cc(F)ccc2F)=NS(N2CC[C@H]3CCCC[C@H]32)=N1 (relative stereo) [6.120] |  |  |  |  | 2 | 4
22 | NC1=NC(Oc2c(F)c(F)c(F)c(F)c2F)=NS(N2CC[C@H]3CCC[C@H]32)=N1 (relative stereo) [6.10] | 4 | 4 | 1 | 1 |  | 
23 | CC1N(S2=NC(N)=NC(Oc3c(F)c(F)c(F)c(F)c3F)=N2)CCCC1(C)C (stereo not shown) [6.90] |  |  |  |  | 2 | 4
24 | CC1CCC(C)N1S1=NC(N)=NC(Oc2c(F)c(F)c(F)c(F)c2F)=N1 (stereo not shown) [6.63] | 4 | 3 | 1 | 1 |  | 
25 | CC1CC(NS2=NC(N)=NC(Oc3c(F)c(F)c(F)c(F)c3F)=N2)CC(C)(C)C1 (stereo not shown) [6.168] |  |  |  |  | 2 | 3
26 | NC1=NS(N2CCCCCCCCCCCC2)=NC(Oc2c(F)c(F)c(F)c(F)c2F)=N1 (stereo not shown) [6.177] |  |  |  |  | 2 | 2
27 | NC1=NC(Oc2c(F)c(F)c(F)c(F)c2F)=NS(N2CCN(c3ccccc3)CC2)=N1 (stereo not shown) [6.77] | 4 | 3 | 1 | 1 |  | 
28 | CC1CCN(S2=NC(Oc3cc(F)ccc3F)=NC(N)=N2)CC(C)(C)C1 (stereo not shown) [6.249] |  |  |  |  | 1 | 2
29 | CN(C1CCCCC1)S1=NC(N)=NC(Oc2c(F)c(F)c(F)c(F)c2F)=N1 (stereo not shown) [6.7] |  |  |  |  | 2 | 3
30 | CC1CC(C)CN(S2=NC(N)=NC(Oc3cc(F)ccc3F)=N2)C1 (stereo not shown) [6.23] |  |  |  |  | 2 | 4
31 | NC1=NC(Oc2c(F)c(F)c(F)c(F)c2F)=NS(NC2CCCCC2)=N1 (stereo not shown) [6.17] |  |  |  |  | 3 | 4
32 | CCCN(CCC)S1=NC(N)=NC(Oc2c(F)c(F)c(F)c(F)c2F)=N1 (stereo not shown) [6.21] |  |  |  |  | 2 | 4
33 | NC1=NC(Oc2cc(F)ccc2F)=NS(N2CCCCCC2)=N1 (stereo not shown) [6.57] |  |  |  |  | 2 | 4
34 | NC1=NC(Oc2c(F)c(F)c(F)c(F)c2F)=NS(N2CC[C@H]3CCC[C@H]32)=N1 (relative stereo) [6.6] |  |  |  |  | 2 | 4
35 | CCC(C)(C)C1CCC(OS2=NC(N)=NC(Oc3c(F)c(F)c(F)c(F)c3F)=N2)CC1 (stereo not shown) [5.59] |  |  |  |  | 1 | 3
36 | NC1=NS(N2CC3CCC(CC3)C2)=NC(Oc2cc(F)ccc2F)=N1 (stereo not shown) [6.81] |  |  |  |  | 2 | 3
37 | NC1=NC(Oc2cc(F)ccc2F)=NS(N2CCc3ccccc3CC2)=N1 (stereo not shown) [6.164] |  |  |  |  | 1 | 3
38 | NC1=NS(N2CCC3CCCCC3CC2)=NC(Oc2c(F)c(F)c(F)c(F)c2F)=N1 (stereo not shown) [6.283] |  |  |  |  | 1 | 4
39 | CC1CCCC(OS2=NC(N)=NC(Oc3c(F)c(F)c(F)c(F)c3F)=N2)C1 (stereo not shown) [5.317] | 4 | 2 | 2 | 1 |  | 
